Structures can show the parent of a compound that is named as a salt.
What follows are molecules tested against kinase domain of IRE1 alpha (His-tagged kinase dead construct KR, AA G547-L977, D688N) (Homo sapiens (Human), UniProt O75460, D688N) (assay: IRE1α TR-FRET competition binding assay). Settings: competition with Kinase Tracer 236, 0.1 μM; one hour at room temperature.
In short: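 Sf9-expressed kinase-dead KR construct (0.006 μM final) pre-incubated 1 h at 4° C with Eu anti-His antibody (0.002 μM) in HEPES pH 7.5/MgCl2/Brij/DTT buffer; Kinase Tracer 236 (ATP-competitive probe, 0.1 μM final) added with compound. 1 h at room temperature; tracer displacement read by TR-FRET (665/615 nm).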

Chain of kinase domain of IRE1 alpha (His-tagged kinase dead construct KR, AA G547-L977, D688N) (O75460 547-977 D688N): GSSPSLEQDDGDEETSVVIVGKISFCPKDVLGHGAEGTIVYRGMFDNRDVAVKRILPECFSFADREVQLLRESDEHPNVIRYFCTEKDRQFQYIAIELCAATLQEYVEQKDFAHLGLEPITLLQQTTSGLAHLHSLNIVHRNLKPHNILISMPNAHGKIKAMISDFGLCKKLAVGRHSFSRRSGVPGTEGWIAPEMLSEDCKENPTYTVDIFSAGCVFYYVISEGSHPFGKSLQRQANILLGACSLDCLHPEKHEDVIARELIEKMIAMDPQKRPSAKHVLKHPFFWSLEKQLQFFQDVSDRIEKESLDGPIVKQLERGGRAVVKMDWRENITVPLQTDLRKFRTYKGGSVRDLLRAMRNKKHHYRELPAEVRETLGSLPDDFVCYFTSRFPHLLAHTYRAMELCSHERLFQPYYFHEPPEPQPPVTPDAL

| IC50 [nM] | SMILES |
| --- | --- |
| 0.28 | COc1cccc(CS(=O)(=O)Nc2c(F)cc(Oc3ncccc3-c3ccnc(N[C@@H]4CNC[C@@](C)(F)C4)n3)c(F)c2F)c1 [Compound 291, 1-(3-Methoxyphenyl)-N-(2,3,6-trifluoro-4-((3-(2-(((3S,5S)-5-fluoro-5-methylpiperidin-3-yl)amino)pyrimidin-4-yl)pyridin-2-yl)oxy)phenyl)methanesulfonamide] |
| 0.33 | Cc1c(Oc2ncccc2-c2ccnc(N[C@@H]3CNC[C@@](C)(F)C3)n2)cc(F)c(NS(=O)(=O)Cc2ccccc2)c1F [Compound 292, N-(2,6-Difluoro-4-((3-(2-(((3S,5S)-5-fluoro-5-methylpiperidin-3-yl)amino)pyrimidin-4-yl)pyridin-2-yl)oxy)-3-methylphenyl)-1-phenylmethanesulfonamide] |
| 0.41 | Cc1c(Oc2ncccc2-c2ccnc(N[C@@H]3CNC[C@@H](F)C3)n2)cc(F)c(NS(=O)(=O)Cc2c(F)cccc2F)c1F [Compound 293, N-(2,6-Difluoro-4-((3-(2-(((3S,5S)-5-fluoropiperidin-3-yl)amino)pyrimidin-4-yl)pyridin-2-yl)oxy)-3-methylphenyl)-1-(2,6-difluorophenyl)methanesulfonamide] |
| 14 | COc1cc(Oc2ncccc2-c2ccnc(N[C@@H]3CNC[C@@H](F)C3)n2)cc(F)c1NS(=O)(=O)Cc1ccccc1 [Compound 296, N-(2-Fluoro-4-((3-(2-(((3S,5S)-5-fluoropiperidin-3-yl)amino)pyrimidin-4-yl)pyridin-2-yl)oxy)-6-methoxyphenyl)-1-phenylmethanesulfonamide] |
| 0.28 | Cc1ccc(CS(=O)(=O)Nc2cc(C)c(Oc3ncccc3-c3ccnc(N[C@@H]4CNC[C@@](C)(F)C4)n3)c(F)c2F)cc1 [Compound 297, N-(2,3-Difluoro-4-((3-(2-(((3S,5S)-5-fluoro-5-methylpiperidin-3-yl)amino)pyrimidin-4-yl)pyridin-2-yl)oxy)-5-methylphenyl)-1-(p-tolyl)methanesulfonamide] |
| 0.23 | COc1ccc(CS(=O)(=O)Nc2c(F)cc(Oc3ncccc3-c3ccnc(N[C@@H]4CNC[C@@](C)(F)C4)n3)c(F)c2F)cc1 [Compound 304, 1-(4-Methoxyphenyl)-N-(2,3,6-trifluoro-4-((3-(2-(((3S,5S)-5-fluoro-5-methylpiperidin-3-yl)amino)pyrimidin-4-yl)pyridin-2-yl)oxy)phenyl)methanesulfonamide] |
| 0.21 | Cc1ccc(CS(=O)(=O)Nc2c(C)cc(Oc3ncccc3-c3ccnc(N[C@@H]4CNC[C@@](C)(F)C4)n3)c(F)c2F)cc1 [Compound 305, N-(2,3-Difluoro-4-((3-(2-(((3S,5S)-5-fluoro-5-methylpiperidin-3-yl)amino)pyrimidin-4-yl)pyridin-2-yl)oxy)-6-methylphenyl)-1-(p-tolyl)methanesulfonamide] |
| 1.1 | CCCS(=O)(=O)Nc1c(F)cc(Oc2ncccc2-c2ccnc(N[C@H]3CC[C@H](N(C)C)CC3)n2)c(F)c1F [Compound 309, N-(4-((3-(2-(((1r,4r)-4-(Dimethylamino)cyclohexyl)amino)pyrimidin-4-yl)pyridin-2-yl)oxy)-2,3,6-trifluorophenyl)propane-1-sulfonamide] |
| 0.32 | CN(C)[C@H]1CC[C@H](Nc2nccc(-c3cccnc3Oc3cc(F)c(NS(=O)(=O)CCC(C)(F)F)c(F)c3F)n2)CC1 [Compound 310, N-(4-((3-(2-(((1r,4r)-4-(Dimethylamino)cyclohexyl)amino)pyrimidin-4-yl)pyridin-2-yl)oxy)-2,3,6-trifluorophenyl)-3,3-difluorobutane-1-sulfonamide] |
| 0.29 | Cc1ccc(CS(=O)(=O)Nc2cc(F)c(Oc3ncccc3-c3ccnc(N[C@@H]4CNC[C@@](C)(F)C4)n3)c(C)c2F)cc1 [Compound 311, N-(2,5-Difluoro-4-((3-(2-(((3S,5S)-5-fluoro-5-methylpiperidin-3-yl)amino)pyrimidin-4-yl)pyridin-2-yl)oxy)-3-methylphenyl)-1-(p-tolyl)methanesulfonamide] |
| 0.14 | CS(=O)(=O)c1ccc(CS(=O)(=O)Nc2c(F)cc(Oc3ncccc3-c3ccnc(N[C@@H]4CNC[C@@H](F)C4)n3)c(F)c2F)cc1 [Compound 312, 1-(4-(Methylsulfonyl)phenyl)-N-(2,3,6-trifluoro-4-((3-(2-(((3S,5S)-5-fluoropiperidin-3-yl)amino)pyrimidin-4-yl)pyridin-2-yl)oxy)phenyl)methanesulfonamide] |
| 0.23 | O=S(=O)(Cc1ccc(C2CC2)cc1)Nc1c(F)cc(Oc2ncccc2-c2ccnc(N[C@@H]3CNC[C@@H](F)C3)n2)c(F)c1F [Compound 315, 1-(4-Cyclopropylphenyl)-N-(2,3,6-trifluoro-4-((3-(2-(((3S,5S)-5-fluoropiperidin-3-yl)amino)pyrimidin-4-yl)pyridin-2-yl)oxy)phenyl)methanesulfonamide] |
| 35 | O=S(=O)(Cc1ccc(F)cc1F)Nc1c(F)cc(Oc2ncccc2-c2ccnc(N[C@@H]3CNC[C@H](CF)C3)n2)c(F)c1F [Compound 320, 1-(2,4-Difluorophenyl)-N-(2,3,6-trifluoro-4-((3-(2-(((3S,5R)-5-(fluoromethyl)piperidin-3-yl)amino)pyrimidin-4-yl)pyridin-2-yl)oxy)phenyl)methanesulfonamide] |
| 0.65 | N#Cc1ccc(CS(=O)(=O)Nc2c(F)cc(Oc3ncccc3-c3ccnc(N[C@@H]4CNC[C@H](CF)C4)n3)c(F)c2F)cc1 [Compound 321, 1-(4-Cyanophenyl)-N-(2,3,6-trifluoro-4-((3-(2-(((3S,5R)-5-(fluoromethyl)piperidin-3-yl)amino)pyrimidin-4-yl)pyridin-2-yl)oxy)phenyl)methanesulfonamide] |
| 0.42 | Cc1cc(F)ccc1CS(=O)(=O)Nc1c(F)cc(Oc2ncccc2-c2ccnc(N[C@@H]3CNC[C@@H](F)C3)n2)c(F)c1F [Compound 322, 1-(4-Fluoro-2-methylphenyl)-N-(2,3,6-trifluoro-4-((3-(2-(((3S,5S)-5-fluoropiperidin-3-yl)amino)pyrimidin-4-yl)pyridin-2-yl)oxy)phenyl)methanesulfonamide] |
| 0.33 | O=S(=O)(Cc1ccccc1F)Nc1c(Cl)cc(Oc2ncccc2-c2ccnc(N[C@@H]3CNC[C@@H](F)C3)n2)c(F)c1F [Compound 323, N-(6-Chloro-2,3-difluoro-4-((3-(2-(((3S,5S)-5-fluoropiperidin-3-yl)amino)pyrimidin-4-yl)pyridin-2-yl)oxy)phenyl)-1-(2-fluorophenyl)methanesulfonamide] |
| 56 | O=S(=O)(Cc1ccccc1F)Nc1c(F)cc(Oc2ncccc2-c2ccnc(N[C@@H]3CNC[C@@H](F)C3)n2)c(Cl)c1F [Compound 332, N-(3-Chloro-2,6-difluoro-4-((3-(2-(((3S,5S)-5-fluoropiperidin-3-yl)amino)pyrimidin-4-yl)pyridin-2-yl)oxy)phenyl)-1-(2-fluorophenyl)methanesulfonamide] |
| 0.19 | CC(C)(F)C1CNCC(Nc2nccc(-c3cccnc3Oc3cc(F)c(NS(=O)(=O)Cc4ccccc4)c(F)c3F)n2)C1 (stereo not shown) [Compound 333, 1-Phenyl-N-(2,3,6-trifluoro-4-((3-(2-((5-(2-fluoropropan-2-yl)piperidin-3-yl)amino)pyrimidin-4-yl)pyridin-2-yl)oxy)phenyl)methanesulfonamide hydrochloride] |
| 7.5 | O=S(=O)(Cc1ccccc1F)Nc1cc(Cl)c(Oc2ncccc2-c2ccnc(N[C@@H]3CNC[C@@H](F)C3)n2)c(F)c1F [Compound 340, N-(5-Chloro-2,3-difluoro-4-((3-(2-(((3S,5S)-5-fluoropiperidin-3-yl)amino)pyrimidin-4-yl)pyridin-2-yl)oxy)phenyl)-1-(2-fluorophenyl)methanesulfonamide] |
| 0.5 | COCCN(C)[C@H]1CC[C@H](Nc2nccc(-c3cccnc3Oc3cc(F)c(NS(=O)(=O)Cc4ccc(F)cc4)c(F)c3F)n2)CC1 [Compound 341, 1-(4-Fluorophenyl)-N-(2,3,6-trifluoro-4-((3-(2-(((1r,4r)-4-((2-methoxyethyl)(methyl)amino)cyclohexyl)amino)pyrimidin-4-yl)pyridin-2-yl)oxy)phenyl)methanesulfonamide hydrochloride] |
| 0.42 | COCCN(C)[C@H]1CC[C@H](Nc2nccc(-c3cccnc3Oc3cc(F)c(NS(=O)(=O)C4CCCCC4)c(F)c3F)n2)CC1 [Compound 350, N-(2,3,6-Trifluoro-4-((3-(2-(((1r,4r)-4-((2-methoxyethyl)(methyl)amino)cyclohexyl)amino)pyrimidin-4-yl)pyridin-2-yl)oxy)phenyl)cyclohexanesulfonamide] |
| 0.91 | O=S(=O)(Cc1ccc(F)cc1F)Nc1c(F)cc(Oc2ncccc2-c2ccnc(N[C@@H]3CNC[C@@H](F)C3)n2)c(F)c1F [Compound 351, 1-(2,4-Difluorophenyl)-N-[2,3,6-trifluoro-4-[[3-[2-[[(3S,5S)-5-fluoro-3-piperidyl]amino]pyrimidin-4-yl]-2-pyridyl]oxy]phenyl]methanesulfonamide] |
| 0.2 | O=S(=O)(Cc1ccccc1Cl)Nc1c(F)cc(Oc2ncccc2-c2ccnc(N[C@@H]3CNC[C@@H](F)C3)n2)c(F)c1F [Compound 352, 1-(2-Chlorophenyl)-N-[2,3,6-trifluoro-4-[[3-[2-[[(3S,5S)-5-fluoro-3-piperidyl]amino]pyrimidin-4-yl]-2-pyridyl]oxy]phenyl]methanesulfonamide] |
| 0.3 | O=S(=O)(Cc1cccc(Cl)c1)Nc1c(F)cc(Oc2ncccc2-c2ccnc(N[C@@H]3CNC[C@@H](F)C3)n2)c(F)c1F [Compound 353, 1-(3-Chlorophenyl)-N-[2,3,6-trifluoro-4-[[3-[2-[[(3S,5S)-5-fluoro-3-piperidyl]amino]pyrimidin-4-yl]-2-pyridyl]oxy]phenyl]methanesulfonamide] |
| 0.2 | O=S(=O)(Cc1ccc(Cl)cc1)Nc1c(F)cc(Oc2ncccc2-c2ccnc(N[C@@H]3CNC[C@@H](F)C3)n2)c(F)c1F [Compound 354, 1-(4-Chlorophenyl)-N-[2,3,6-trifluoro-4-[[3-[2-[[(3S,5S)-5-fluoro-3-piperidyl]amino]pyrimidin-4-yl]-2-pyridyl]oxy]phenyl]methanesulfonamide] |

Reference: patent publication US12071425B2 (Genentech, Inc., priority 2018, dated 2024)
